Among the data in ChEMBL document CHEMBL1165932, “Inhibition of Mycobacterium tuberculosis tyrosine phosphatase PtpA by synthetic chalcones: kinetics, molecular modeling, toxicity and effect on growth” (Bioorg Med Chem, 2010) are Activity values, retold here.

The test system of experiment [1] is Mycobacterium tuberculosis. Nature of the experiment: Antibacterial activity against Mycobacterium bovis BCG infected in human THP1 cells assessed as viral infection at 10 uM after 24 hrs relative to control. The format is functional, variant bovis BCG, THP-1.
Experiment [2] concerns Mycobacterium tuberculosis. Nature of the experiment: Antibacterial activity against Mycobacterium bovis BCG infected in human THP1 cells assessed as viral infection at 20 uM after 48 hrs relative to control. It counts as functional, variant bovis BCG, THP-1.

Turning to `COc1ccc(C(=O)/C=C/c2ccc3ccccc3c2)cc1OC`, the Activity in experiment [1] is listed as 63.8%; in experiment [2] it was 32.9%.

In the case of `COc1ccc(OC)c(C(=O)/C=C/c2cccc3ccccc23)c1`, the Activity is given as 108.6% in experiment [1] and 46.3% in experiment [2].

With `COc1ccc(OC)c(C(=O)/C=C/c2ccc3ccccc3c2)c1`, the Activity in experiment [1] was 117.7%; in experiment [2], 234.9%.

Turning to `COc1cc(C(=O)/C=C/c2ccc3ccccc3c2)ccc1O`, the Activity is given as 72.9% in experiment [1] and 8.5% in experiment [2].

As for `O=C(/C=C/c1cccc2ccccc12)c1ccccc1O`, the results for the Activity in experiment [1] and in experiment [2] were 180.8% and 71.3%, respectively.
